What all share (assay type): physicochemical
A short description of data set [1]: LPME of drugs from human plasma, urine and whole blood with vial format device, CZE analysis.
The nature of data set [2]: LPME of eight basic drugs from water with phosphate buffer acceptors of different pH, CE analysis.
A short description of data set [3]: LPME of seven basic drugs with different hollow fibres (polypropylene, polysulfone).
Data set [4] is described as follows: LPME of seven basic drugs from water with different acidic acceptor phases, CE analysis. The conditions noted are these: water sample, 100 ng/mL.
[5] abbreviates: human plasma, same fashion as tramadol example, running buffer 75 mM phosphate pH 3.0 + triethylamine + hydroxypropyl-β-cyclodextrin.
The mark [6] stands for this setting: human plasma 0.5 mL, hexyl ether, 0.1 M hydrochloric acid (17 μL) acceptor, 45 minutes, tramadol example.
Where [7] appears, read: 10 mM phosphate buffer acceptor pH 2.5, 60 minutes.
Where [8] appears, read: 10 mM phosphate buffer acceptor pH 3.5, 60 minutes.
Where [9] appears, read: 10 mM phosphate buffer acceptor pH 4.5, 60 minutes.
[10] abbreviates: 10 mM phosphate buffer acceptor pH 5.5, 60 minutes.
Setting [11] is: 10 mM phosphate buffer acceptor pH 6.5, 60 minutes.
[12] abbreviates: 10 mM phosphate buffer acceptor pH 7.5, 60 minutes.
The mark [13] stands for this setting: hollow fibre Polypropylene, 280 μm ID, hexyl ether, 0.01 M hydrochloric acid acceptor.
Where [14] appears, read: hollow fibre Polypropylene, 600 μm ID, hexyl ether, 0.01 M hydrochloric acid acceptor.
Setting [15] is: hollow fibre Polysulfone, 500 μm ID, hexyl ether, 0.01 M hydrochloric acid acceptor.
[16] abbreviates: acceptor phase 10 mM CH3COOH, measured pH 3.3.
Setting [17] is: acceptor phase 10 mM H2S04, measured pH 2.1.
Setting [18] is: acceptor phase 10 mM H3PO4, measured pH 2.5.
Setting [19] is: acceptor phase 10 mM HCOOH, measured pH 3.1.
Where [20] appears, read: acceptor phase 10 mM HCl, measured pH 2.1.
Where [21] appears, read: acceptor phase 10 mM HNO3, measured pH 1.9.
Where [22] appears, read: acceptor phase 10 mM acetate, measured pH 4.8.
Setting [23] is: acceptor phase 10 mM phosphate, measured pH 3.3.
The mark [24] stands for this setting: acceptor phase 100 mM CH3COOH, measured pH 2.7.
Setting [25] is: acceptor phase 100 mM H2S04, measured pH 1.3.
[26] abbreviates: acceptor phase 100 mM H3PO4, measured pH 1.8.
The mark [27] stands for this setting: acceptor phase 100 mM HCOOH, measured pH 2.3.
[28] abbreviates: acceptor phase 100 mM HCl, measured pH 1.2.
Where [29] appears, read: acceptor phase 100 mM phosphate, measured pH 3.0.
Where [30] appears, read: human urine 2.0 mL, hexyl ether, 0.01 M hydrochloric acid acceptor, 45 minutes.
[31] abbreviates: acceptor phase 100 mM HNO3, measured pH 1.1.
Setting [32] is: human plasma 250 μL, hexyl ether membrane, 0.01 M hydrochloric acid acceptor, 30 minutes.
Setting [33] is: human whole blood 250 μL, hexyl ether membrane, 0.01 M hydrochloric acid acceptor, 30 minutes.
The mark [34] stands for this setting: human urine or plasma 2.5 mL, 1-octanol membrane, 0.1M hydrochloric acid acceptor, 45 minutes.

Read-outs that look alike come from different tables or passages of the source.

With `CN1CCN2c3ccccc3Cc3ccccc3C2C1` (stereo not drawn) [Mianserine, mianserine], in data set [1] (setting [5]), the Enrichment turned out to be 15 fold and the Extraction efficiency turned out to be 50%.

With `CNCCCC1(c2ccc(F)cc2)OCc2cc(C#N)ccc21` (stereo not drawn) [N-desmethyl metabolite, N-desmethylcitalopram], the Preconcentration in data set [1] (patient plasma 1 mL, hexyl ether membrane, 20 mM phosphate buffer pH 2.75 acceptor, 45 minutes) is given as 30 fold.

In turn, `COc1ccc2cc([C@H](C)C(=O)O)ccc2c1` [Naproxen, naproxen] yielded an Enrichment in data set [1] of 82 fold.

As for `COc1cccc(C2(O)CCCCC2CN(C)C)c1` (stereo not drawn) [Tramadol, tramadol], in data set [1] (setting [6]), the Enrichment is on record as 30 fold and the Extraction efficiency is reported as 100%.

Consider `CC(N)Cc1ccccc1` (stereo not drawn) [amphetamine], for which the “Enrichment (average of 3 replicates)” value in data set [2] (setting [7]) is on record as 107; in data set [2] (setting [8]), 102; in data set [2] (setting [9]), 104; in data set [2] (setting [10]) it was 93; in data set [2] (setting [11]), 88; in data set [2] (setting [12]), 64. Besides, the “Enrichment (average of 3 replicates)” value was 104 in data set [3] (setting [13]); 82 in data set [3] (setting [14]); 22 in data set [3] (setting [15]); 66 in data set [4] (setting [16]); 104 in data set [4] (setting [17]); 72 in data set [4] (setting [18]). Moreover, the “Enrichment (average of 3 replicates)” value in data set [4] (setting [19]) worked out at 72; in data set [4] (setting [20]) it was 82; in data set [4] (setting [21]) it was 48; in data set [4] (setting [22]) it was 90; in data set [4] (setting [23]), 123; in data set [4] (setting [24]), 48. The “Enrichment (average of 3 replicates)” value in data set [4] (setting [25]) was determined as 98; in data set [4] (setting [26]), 58; in data set [4] (setting [27]), 5; in data set [4] (setting [28]), 74; in data set [4] (setting [29]), 128. The Enrichment in data set [1] (setting [30]) was determined as 77. Moreover, the Extraction efficiency in data set [1] (setting [30]) is reported as 97%.

For the compound `CN1CCN(C(c2ccccc2)c2ccc(Cl)cc2)CC1` (stereo not drawn) [chlorcyclizine], the “Enrichment (average of 3 replicates)” value in data set [2] (setting [7]) is given as 123; in data set [2] (setting [8]), 32; in data set [2] (setting [9]), 5; in data set [3] (setting [13]), 106; in data set [3] (setting [14]), 126; in data set [3] (setting [15]) it was 110. Also, the “Enrichment (average of 3 replicates)” value in data set [4] (setting [16]) is on record as 32; in data set [4] (setting [17]), 122; in data set [4] (setting [18]), 118; in data set [4] (setting [19]), 72; in data set [4] (setting [20]), 126; in data set [4] (setting [21]), 120. Also, the “Enrichment (average of 3 replicates)” value worked out at 3 in data set [4] (setting [22]); 83 in data set [4] (setting [23]); 66 in data set [4] (setting [24]); 136 in data set [4] (setting [25]); 80 in data set [4] (setting [26]); 93 in data set [4] (setting [27]). Moreover, the figures for the “Enrichment (average of 3 replicates)” value in data set [4] (setting [28]), in data set [4] (setting [31]) and in data set [4] (setting [29]) were 138, 136 and 93, respectively. The same compound displayed an Enrichment in data set [1] (human plasma 2.0 mL, hexyl ether, 0.01 M hydrochloric acid acceptor, 45 minutes) of 52.

As to `CN1C(=O)CN=C(c2ccccc2)c2cc(Cl)ccc21` [diazepam], the “Enrichment (average of 3 replicates)” value is listed as 3 in data set [2] (pH 2.5) and 2 in data set [2] (pH 3.5).

`O=C(CCCN1CCC(O)(c2ccc(Cl)cc2)CC1)c1ccc(F)cc1` [haloperidol]: in data set [3], the “Enrichment (average of 3 replicates)” value is reported as 131.

For the compound `CCC(=O)C(CC(C)N(C)C)(c1ccccc1)c1ccccc1` (stereo not drawn) [methadone], the “Enrichment (average of 3 replicates)” value in data set [3] (setting [13]) is 138; in data set [3] (setting [14]), 138; in data set [3] (setting [15]) it was 139; in data set [4] (setting [16]), 86; in data set [4] (setting [17]), 157; in data set [4] (setting [18]), 96. Also, the “Enrichment (average of 3 replicates)” value is reported as 114 in data set [4] (setting [19]); 138 in data set [4] (setting [20]); 141 in data set [4] (setting [21]); 42 in data set [4] (setting [22]); 134 in data set [4] (setting [23]); 84 in data set [4] (setting [24]). The “Enrichment (average of 3 replicates)” value in data set [4] (setting [25]) is 150; in data set [4] (setting [26]), 77; in data set [4] (setting [27]), 91; in data set [4] (setting [28]), 134; in data set [4] (setting [31]) it was 107; in data set [4] (acceptor phase 100 mM acetate, measured pH 4.8), 42. In addition, in data set [4] (setting [29]), the “Enrichment (average of 3 replicates)” value is listed as 117. The Enrichment in data set [1] (setting [32]) is 6.4; in data set [1] (setting [33]), 5.4.

As to `CN[C@@H](C)Cc1ccccc1` [methamphetamine], the “Enrichment (average of 3 replicates)” value in data set [2] (setting [7]) came out at 150; in data set [2] (setting [8]) it was 146; in data set [2] (setting [9]) it was 150; in data set [2] (setting [10]) it was 134; in data set [2] (setting [11]), 122; in data set [2] (setting [12]) it was 88. The “Enrichment (average of 3 replicates)” value in data set [3] (setting [13]) is 123; in data set [3] (setting [14]), 122; in data set [3] (setting [15]), 46; in data set [4] (setting [16]), 93; in data set [4] (setting [17]) it was 141; in data set [4] (setting [18]) it was 96. Also, the “Enrichment (average of 3 replicates)” value in data set [4] (setting [19]) was determined as 106; in data set [4] (setting [20]), 122; in data set [4] (setting [21]) it was 125; in data set [4] (setting [22]), 128; in data set [4] (setting [23]), 136; in data set [4] (setting [24]) it was 77. Also, the “Enrichment (average of 3 replicates)” value is 134 in data set [4] (setting [25]); 83 in data set [4] (setting [26]); 13 in data set [4] (setting [27]); 120 in data set [4] (setting [28]); 133 in data set [4] (setting [29]). Moreover, the “Enriched to the extent of” value in data set [3] (polypropylene fiber, 600 μm inner diameter, hexyl ether, 0.01 M hydrochloric acid) came to 82%. Further, in data set [3] (polysulfone fiber, 500 μm inner diameter, hexyl ether, 0.01 M hydrochloric acid), the “Recovered/enriched to the extent of” value is 22%. Moreover, the Enrichment in data set [1] (setting [32]) is listed as 8.1; in data set [1] (setting [34]) it was 75 fold; in data set [1] (human whole blood 2.5 mL, 280 μm ID polypropylene fiber, hexyl ether, 17 μL 0.1 M hydrochloric acid acceptor, 30 minutes) it was “one hundred”; in data set [1] (setting [33]), 7.8. The Extraction efficiency in data set [1] (setting [32]) amounted to 81%; in data set [1] (setting [34]), 75%; in data set [1] (setting [33]), 78%.

With `COc1ccc2c(c1OC)C(=O)O[C@@H]2[C@H]1c2c(cc3c(c2OC)OCO3)CCN1C` [noscapin], the “Enrichment (average of 3 replicates)” value in data set [2] (setting [7]) is listed as 8; in data set [2] (setting [8]), 2.

Consider `CC(CN1c2ccccc2Sc2ccccc21)N(C)C` (stereo not drawn) [promethazine], for which the Enrichment was determined as 5.5 in data set [1] (setting [32]) and 4.3 in data set [1] (setting [33]). The Extraction efficiency is reported as 55% in data set [1] (setting [32]) and 43% in data set [1] (setting [33]).

On to `COC(=O)[C@H]1[C@H]2C[C@@H]3c4[nH]c5cc(OC)ccc5c4CCN3C[C@H]2C[C@@H](OC(=O)c2cc(OC)c(OC)c(OC)c2)[C@@H]1OC` [reserpin], for which the “Enrichment (average of 3 replicates)” value came to 18 in data set [2] (setting [7]) and 2 in data set [2] (setting [8]).

(Values after patent publication US7468281B2, “Hollow fiber membrane sample preparation devices” (priority 2001, dated 2008).)
